Results from patent US9226506B2, “Methods of weed control in chicory” (Dow AgroSciences LLC, priority 2013, dated 2016).

Key:
[1] = system: Coronopus didymus (lesser swinecress), COPDI; test: Field trial, post-emergence weed control in chicory; assay type: in vivo; settings: 2 trials, 30 days after last application
Procedure: (§1) Field trials were conducted in Northern France and Belgium, both of which are major areas for root chicory and whitloof chicory production. Trials were conducted in accordance with EPPO standard PP 1/99(3) entitled “Weeds in Roots Vegetables,” PP 1/152(4) entitled “Design and Analysis of Efficacy Evaluation Trials,” PP 1/135(3) entitled “Phytotoxic Assessment,” and PP 1/181(4) entitled “Conduct and Reporting of Efficacy Evaluation Trials Including Good Experimental Practice,” all of which are incorporated herein by reference in their entirety.
(§2) Application to all field trials was made using a small plot precision sprayer operating at between 160-400 kilopascals (kPa) pressure, delivering a spray volume of 150-400 liters per hectare (L/ha). Nozzles were of a flat fan type. Trial plot size ranged from 4.5×2.5 square meters (m^2) to 10.5×2.5 m^2. Plots were replicated 3 or 4 times and were arranged in a randomized block design within each trial. All trials received a pre-emergence application of BONALAN® at 6 L/ha (benfluralin; 180 grams active ingredient per liter (g ai/L); commercially available from Dow AgroSciences LLC) with incorporation to prevent the emergence of grasses which could complicate the assessment of broadleaf control.
(§3) In whitloof chicory (Cichorium intybus), treatments were evaluated which included either two or three post-emergence applications of herbicide. Multiple applications of herbicide were evaluated for their ability to control weed emergence during the extended period of time required for chicory cultivation. Trials included different combinations of application rate and application timing. Broadcast applications were made from May to July, covering a range of possible application timings. Penoxulam was applied at a maximum total rate of 15 g/ha per season, applied in two or three applications with a minimum of seven days between applications. Treatment with penoxsulam involved application of either BOA® or VIPER® (2.14% weight per weight (w/w) oil dispersions of penoxsulam commercially available from Dow AgroSciences LLC). Trials were also conducted using another ALS mode-of-action herbicide (i.e., the sulfonylurea triflusulfuron-methyl). Triflusulfuron-methyl was applied at a maximum total rate of 30 g/ha per season, applied in two or three applications with a minimum of seven days between applications. Treatment with triflusulfuron-methyl involved application of SAFARI® (triflusulfuron-methyl; commercially available from DuPont Crop Protection).
(§4) Prior to treatment application, assessments of weed populations (number of plants per m^2) were carried out using a quadrant square and an appropriate number of sampling points.
(§5) 1) Visual rating in percent of the overall volume reduction of vegetation for each species compared to the nearest untreated plot (Plant/Control/% visual; 0%=no control; 100%=all weeds dead). Assessments of this type were performed by Dow AgroSciences LLC in France.
(§6) Assessments of weed control were carried out at 14, 28, 56 and 84 days or longer after each application timing (DAAA=days after application A, DAAB=days after application B or DAAC=days after application C).

[2] = system: Galinsoga ciliata (shaggy soldier) / Galinsoga parviflora (potato weed), GASCI-GASPA; test: as above; assay type: in vivo; settings: 4 trials, 30 days after last application
Procedure: as §1, §2, §3, §4, §5, §6

[3] = system: Matricaria recutita (wild chamomile), MATCH; test: as above; assay type: in vivo; settings: 2-3 trials (number of trials in parentheses in cell), 30 days after last application
Procedure: as §1, §2, §3, §4, §5, §6

[4] = system: Senecio vulgaris (common groundsel), SENVU; test: as above; assay type: in vivo; settings: 1 trial, 30 days after last application
Procedure: as §1, §2, §3, §4, §5, §6

[5] = system: Solanum nigrum (black nightshade), SQLNI; test: as above; assay type: in vivo; settings: 2 trials, 30 days after last application
Procedure: as §1, §2, §3, §4, §5, §6

[6] = system: chicory (varieties Ecrine, Hermès); test: Chicory root development (number of roots) after post-emergence applications; assay type: in vivo, Cichorium intybus; settings: treatment with penoxsulam in chicory field trials
Procedure: Field trials were conducted in Northern France and Belgium, both of which are major areas for root chicory and whitloof chicory production. Trials were conducted in accordance with EPPO standard PP 1/99(3) entitled “Weeds in Roots Vegetables,” PP 1/152(4) entitled “Design and Analysis of Efficacy Evaluation Trials,” PP 1/135(3) entitled “Phytotoxic Assessment,” and PP 1/181(4) entitled “Conduct and Reporting of Efficacy Evaluation Trials Including Good Experimental Practice,” all of which are incorporated herein by reference in their entirety. […]
(§7) In whitloof chicory (Cichorium intybus), treatments were evaluated which included either two or three post-emergence applications of herbicide. Multiple applications of herbicide were evaluated for their ability to control weed emergence during the extended period of time required for chicory cultivation. […]
Harvest was carried out 171 DAAC on 4 rows per plot. After harvest, the roots were counted and weighted, and the percent of roots usable for forcing was measured. […] The brut yield (total weight of chicons produced; marketable+non-marketable), net yield (weight of marketable chicons produced) and best class yield (Extra+1=weight of Extra and First Class chicons produced) were measured (in kilograms per 10 square meters (kg/10 m^2)).

[7] = system: undesirable vegetation; test: Weed control field trials, overall statement; assay type: in vivo; settings: applied post-emergence to the crop and weeds
Procedure: as §1
Application to all field trials was made using a small plot precision sprayer operating at between 160-400 kilopascals (kPa) pressure, delivering a spray volume of 150-400 liters per hectare (L/ha). Nozzles were of a flat fan type. Trial plot size ranged from 4.5×2.5 square meters (m^2) to 10.5×2.5 m^2. […]
as §7
3) Following treatments, the remaining plants were weighed to determine the mass per plant (expressed as g/plant) one month after the last pesticide application. […]

[8] = system: chicory; parameters: species or system Cichorium intybus; settings: in vivo
Procedure: as §1
Application to all field trials was made using a small plot precision sprayer operating at between 160-400 kilopascals (kPa) pressure, delivering a spray volume of 150-400 liters per hectare (L/ha). Nozzles were of a flat fan type. Trial plot size ranged from 4.5×2.5 square meters (m^2) to 10.5×2.5 m^2. Plots were replicated 3 or 4 times and were arranged in a randomized block design within each trial. […]
as §7

[9] = 3 applications 3.73/3.73/3.73 g ai/ha

COc1cnc(OC)n2nc(NS(=O)(=O)c3c(OCC(F)F)cccc3C(F)(F)F)nc12 [Penoxsulam]
% Visual Weed Control ([1]; 2 applications 5.6/5.6 g ai/ha): 92.4%
% Visual Weed Control ([1]; 2 applications 7.5/7.5 g ai/ha): 96.25%
% Visual Weed Control [1, 9]: 90.15%
% Visual Weed Control ([1]; 3 applications 5/5/5 g ai/ha): 93.25%
% Visual Weed Control ([2]; 2 applications 5.6/5.6 g ai/ha): 87.3%
% Visual Weed Control ([2]; 2 applications 7.5/7.5 g ai/ha): 87.9%
% Visual Weed Control [2, 9]: 95.9%
% Visual Weed Control ([2]; 3 applications 5/5/5 g ai/ha): 96.7%
% Visual Weed Control ([3]; 2 applications 5.6/5.6 g ai/ha): 93 (2) %
% Visual Weed Control ([3]; 2 applications 7.5/7.5 g ai/ha): 93.9 (3) %
% Visual Weed Control [3, 9]: 91.4 (2) %
% Visual Weed Control ([3]; 3 applications 5/5/5 g ai/ha): 97.2 (3) %
% Visual Weed Control ([4]; 2 applications 5.6/5.6 g ai/ha): 50%
% Visual Weed Control ([4]; 2 applications 7.5/7.5 g ai/ha): 100%
% Visual Weed Control [4, 9]: 60%
% Visual Weed Control ([4]; 3 applications 5/5/5 g ai/ha): 100%
% Visual Weed Control ([5]; 2 applications 5.6/5.6 g ai/ha): 66.5%
% Visual Weed Control ([5]; 2 applications 7.5/7.5 g ai/ha): 100%
% Visual Weed Control [5, 9]: 83.4%
% Visual Weed Control ([5]; 3 applications 5/5/5 g ai/ha): 83.4%
effect on root yield [6]: no deleterious effect on root yield
control of undesirable vegetation [7]: good control of undesirable vegetation
crop tolerance [8]: commercially acceptable crop tolerance
visible crop injury [8]: some visible crop injury
